Measured values taken from PubChem BioAssay AID1963984 (Molecular Pharmacology Branch, DTP, NCI, 2024).

System: 233499-124-R-J3-PDC spheroids with HUVEC/MSC, viability
Test: Anticancer human tumor 233499-124-R-J3-PDC patient-derived colon adenocarcinoma cell line growth inhibition [PI3K]
Conditions: for IC50: curve of first compound; for viability, T/C: stronger effect = lower value; active = viability on the fitted dose curve at most 10% of control; inactive = the rest
From the text: Combinatorial screen of targeted agents with the PI3K inhibitors inavolisib, alpelisib, duvelisib, and copanlisib in multi-cell type tumor spheroids
A high-throughput screen of multi-cell type tumor spheroids was designed to identify active combinations of targeted small molecules and PI3K pathway inhibitors. Complex spheroids include a stromal component modeled by human endothelial cells (HUVEC) and fibroblasts modeled by human mesenchymal stem cells (MSCs). The concentration ranges selected for each drug and investigational agent were based upon clinically achievable concentrations if the clinical Cmax of the agent was known.
Compounds. The drugs and investigational agents: inavolisib (NSC800729), alpelisib (NSC765974), duvelisib (NSC772469), copanlisib (NSC816437), ipatasertib (NSC767898), afuresertib (NSC778305), talazoparib (NSC767125), sapanisertib (NSC764658), selumetinib (NSC741078), tovorafenib (DAY101, NSC766906), vemurafenib (NSC761431), ravoxertinib (NSC781343), sotorasib (NSC818433), MRTX1133 (NSC 836407), abemaciclib (NSC 768073), palbociclib (NSC758247), venetoclax (NSC 766270), SY5609 (NSC837396), enzalutamide (NSC755605), and darolutamide (NSC825331), were obtained from the National Cancer Institute (NCI) Developmental Therapeutics Program Chemical Repository. The FDA-approved anticancer drug set is available from the NCI Developmental Therapeutics Program. […] The stock solutions were prepared in dimethyl sulfoxide (DMSO, Sigma-Aldrich, St. Louis, MO, cat. D2650) at 800-fold the tested concentration and stored at -70 degrees C prior to their use. All drugs and investigational agents were tested over a range starting from a high concentration at or near the clinical Cmax and decreasing in half-log increments. If the clinical Cmax for an agent had not been determined, the highest concentration tested was 10 microM.
Cell Culture. All cells were maintained in an incubator at 37 degrees C and 5% CO2 with 95% humidity. The PDC lines were cultured according to standard operating procedures established by the NCI PDMR (https://pdmr.cancer.gov/sops/default.htm). All PDCs were thawed and cultured in Matrigel-coated flasks prepared with a working solution of 1X Ham's F-12 nutrient mix, without supplementation (Invitrogen, Waltham, MA, cat. 11765054), 100 U/mL penicillin-streptomycin (Invitrogen, cat. 15140122), and 2.5% Matrigel (Corning Inc., Corning, NY, cat. 354248) for the first three passages. The 354836-022-R-J1-PDC, 475296-252-R-J1-PDC, and 997726-040-R-J2-PDC lines were cultured in 6A media, which includes advanced DMEM/F-12 (Thermo Fisher Scientific, cat. 12634028), 10 mM HEPES (Thermo Fisher Scientific, cat. 15630080), 1X GlutaMAX supplement (Thermo Fisher Scientific, cat. 35050061), 0.1 mg/mL primocin (InvivoGen, San Diego, CA, cat. ant-pm-2), 10% defined fetal bovine serum, heat inactivated (HyClone Laboratories Inc., Logan, UT, cat. SH30070.03HI), 50% L-WRN conditioned media (ATCC, cat. CRL-3276), 1.25 mM N-Acetyl-L-cysteine (Sigma-Aldrich, cat. A9165), 10 mM nicotinamide (Sigma-Aldrich, cat. N0636), 1X B-27 supplement (Thermo Fisher Scientific, cat. 17504044), 1X N-2 supplement (Thermo Fisher Scientific, cat. 17502048), and 10 microM Y-27632 dihydrochloride (Tocris Bioscience, Bristol, United Kingdom, cat. 1254). The 624824-186-R-J2-PDC line was cultured in 6C/Colon 1B media, which includes all 6A media components plus 50 ng/mL human EGF recombinant protein (Thermo Fisher Scientific, cat. PHG0311). […]

[1] = second compound 0.00316 µM, first compound 0.0316 µM
[2] = second compound 0.00316 µM, first compound 0.1 µM
[3] = second compound 0.00316 µM, first compound 0.316 µM
[4] = second compound 0.00316 µM, first compound 1 µM
[5] = second compound 0.00316 µM, first compound 3.16 µM
[6] = second compound 0.00316 µM, first compound 10 µM
[7] = second compound 0.01 µM, first compound 0.0316 µM
[8] = second compound 0.01 µM, first compound 0.1 µM
[9] = second compound 0.01 µM, first compound 0.316 µM
[10] = second compound 0.01 µM, first compound 1 µM
[11] = second compound 0.01 µM, first compound 3.16 µM
[12] = second compound 0.01 µM, first compound 10 µM
[13] = second compound 0.0316 µM, first compound 0.0316 µM
[14] = second compound 0.0316 µM, first compound 0.1 µM
[15] = second compound 0.0316 µM, first compound 0.316 µM
[16] = second compound 0.0316 µM, first compound 1 µM
[17] = second compound 0.0316 µM, first compound 3.16 µM
[18] = second compound 0.0316 µM, first compound 10 µM
[19] = second compound 0.1 µM, first compound 0.0316 µM
[20] = second compound 0.1 µM, first compound 0.1 µM
[21] = second compound 0.1 µM, first compound 0.316 µM
[22] = second compound 0.1 µM, first compound 1 µM
[23] = second compound 0.1 µM, first compound 3.16 µM
[24] = second compound 0.1 µM, first compound 10 µM
[25] = second compound 0.316 µM, first compound 0.0316 µM
[26] = second compound 0.316 µM, first compound 0.1 µM
[27] = second compound 0.316 µM, first compound 0.316 µM
[28] = second compound 0.316 µM, first compound 1 µM
[29] = second compound 0.316 µM, first compound 3.16 µM
[30] = second compound 0.316 µM, first compound 10 µM
[31] = second compound 1 µM, first compound 0.0316 µM
[32] = second compound 1 µM, first compound 0.1 µM
[33] = second compound 1 µM, first compound 0.316 µM
[34] = second compound 1 µM, first compound 1 µM
[35] = second compound 1 µM, first compound 3.16 µM
[36] = second compound 1 µM, first compound 10 µM
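Also: spheroids exposed to agents for seven days before readout.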
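For viability, T/C in this document: percent viability relative to DMSO vehicle control taken as 100%.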

CC(C)NCC(C(=O)N1CCN(c2ncnc3c2C(C)CC3O)CC1)c1ccc(Cl)cc1 (stereo unspecified) + CC(Nc1ccc2c(c1)OCCn1cc(N3C(=O)OCC3C(F)F)nc1-2)C(N)=O
inactive: viability, T/C [1] 53.2% | viability, T/C [2] 98.8% | viability, T/C [3] 74.7% | viability, T/C [4] 96% | viability, T/C [5] 94.2% | viability, T/C [6] 50.3% | viability, T/C [7] 96.7% | viability, T/C [8] 102% | viability, T/C [9] 94.8% | viability, T/C [10] 96.2% | viability, T/C [11] 86.1% | viability, T/C [12] 71.1% | viability, T/C [13] 89% | viability, T/C [14] 84.9% | viability, T/C [15] 89% | viability, T/C [16] 86.1% | viability, T/C [17] 81.2% | viability, T/C [18] 76.8% | viability, T/C [19] 87.7% | viability, T/C [20] 86.2% | viability, T/C [21] 77.3% | viability, T/C [22] 51.9% | viability, T/C [23] 80.8% | viability, T/C [24] 58.6% | viability, T/C [25] 72.2% | viability, T/C [26] 83.2% | viability, T/C [27] 69.7% | viability, T/C [28] 67.5% | viability, T/C [29] 59.9% | viability, T/C [30] 79.5% | viability, T/C [31] 49.2% | viability, T/C [32] 40.3% | viability, T/C [33] 65.2% | viability, T/C [34] 68.7% | viability, T/C [35] 50.9% | viability, T/C [36] 36.4%
7250 nM: IC50 (second compound 1 µM)
> 10000 nM: IC50 (second compound 0.00316 µM) | IC50 (second compound 0.01 µM) | IC50 (second compound 0.0316 µM) | IC50 (second compound 0.1 µM) | IC50 (second compound 0.316 µM)

CCN1CCN(Cc2ccc(Nc3ncc(F)c(-c4cc(F)c5nc(C)n(C(C)C)c5c4)n3)nc2)CC1 + CC(Nc1ccc2c(c1)OCCn1cc(N3C(=O)OCC3C(F)F)nc1-2)C(N)=O
inactive: viability, T/C (second compound 0.00316 µM, first compound 0.00316 µM) 68.8% | viability, T/C (second compound 0.00316 µM, first compound 0.01 µM) 98.9% | viability, T/C [1] 94% | viability, T/C [2] 73.7% | viability, T/C [3] 59.5% | viability, T/C [4] 49.7% | viability, T/C (second compound 0.01 µM, first compound 0.00316 µM) 106% | viability, T/C (second compound 0.01 µM, first compound 0.01 µM) 95.8% | viability, T/C [7] 89.7% | viability, T/C [8] 85.4% | viability, T/C [9] 79.9% | viability, T/C [10] 35.7% | viability, T/C (second compound 0.0316 µM, first compound 0.00316 µM) 90.2% | viability, T/C (second compound 0.0316 µM, first compound 0.01 µM) 85.2% | viability, T/C [13] 82% | viability, T/C [14] 91.6% | viability, T/C [15] 58.5% | viability, T/C [16] 39.3% | viability, T/C (second compound 0.1 µM, first compound 0.00316 µM) 87.8% | viability, T/C (second compound 0.1 µM, first compound 0.01 µM) 90.8% | viability, T/C [19] 73.8% | viability, T/C [20] 79% | viability, T/C [21] 39.4% | viability, T/C [22] 40.8% | viability, T/C (second compound 0.316 µM, first compound 0.00316 µM) 73.2% | viability, T/C (second compound 0.316 µM, first compound 0.01 µM) 72.7% | viability, T/C [25] 63% | viability, T/C [26] 51.1% | viability, T/C [27] 31.2% | viability, T/C [28] 44.5% | viability, T/C (second compound 1 µM, first compound 0.00316 µM) 55.3% | viability, T/C (second compound 1 µM, first compound 0.01 µM) 45.2% | viability, T/C [31] 32.2% | viability, T/C [32] 48.9% | viability, T/C [33] 42.6% | viability, T/C [34] 27.8%
4.39 nM: IC50 (second compound 1 µM)
86.9 nM: IC50 (second compound 0.316 µM)
528 nM: IC50 (second compound 0.0316 µM)
672 nM: IC50 (second compound 0.01 µM)
236 nM: IC50 (second compound 0.1 µM)
> 1000 nM: IC50 (second compound 0.00316 µM)

Cn1ncc(Cl)c1-c1cc(C(=O)NC(CN)Cc2cccc(F)c2)sc1Cl (stereo unspecified) + CC(Nc1ccc2c(c1)OCCn1cc(N3C(=O)OCC3C(F)F)nc1-2)C(N)=O
3790 nM: IC50 (second compound 0.01 µM)
inactive: viability, T/C [1] 73.9% | viability, T/C [2] 93% | viability, T/C [3] 93.9% | viability, T/C [4] 99.9% | viability, T/C [5] 58.4% | viability, T/C [6] 30.5% | viability, T/C [7] 86.1% | viability, T/C [8] 81.8% | viability, T/C [9] 81.5% | viability, T/C [10] 80.8% | viability, T/C [11] 53.3% | viability, T/C [12] 32.1% | viability, T/C [13] 111% | viability, T/C [14] 82.9% | viability, T/C [15] 80.3% | viability, T/C [16] 77.8% | viability, T/C [17] 43.8% | viability, T/C [18] 21.4% | viability, T/C [19] 97.4% | viability, T/C [20] 94.3% | viability, T/C [21] 65.6% | viability, T/C [22] 67% | viability, T/C [23] 62.3% | viability, T/C [24] 16.6% | viability, T/C [25] 79% | viability, T/C [26] 94.3% | viability, T/C [27] 61.5% | viability, T/C [28] 55.2% | viability, T/C [29] 46.9% | viability, T/C [30] 19.8% | viability, T/C [31] 42.6% | viability, T/C [32] 61.8% | viability, T/C [33] 67.2% | viability, T/C [34] 56% | viability, T/C [35] 42.9% | viability, T/C [36] 14.3%
3190 nM: IC50 (second compound 0.1 µM)
2730 nM: IC50 (second compound 0.0316 µM)
1730 nM: IC50 (second compound 1 µM)
4460 nM: IC50 (second compound 0.00316 µM)
1800 nM: IC50 (second compound 0.316 µM)
